Results on 27 compounds are retold here after patent publication US20230008368A1, “IMIDAZOQUINOLINE SUBSTITUTED PHOSPHORIC ESTER AGONIST, AND PREPARATION THEREFOR AND APPLICATION THEREOF” (SUZHOU ZELGEN BIOPHARMACEUTICALS CO., LTD., priority 2019, published 2023).

The target of one series is T1, hTLR8 (Homo sapiens, UniProt Q9NR97).
T1 construct: expressed in transfected cells; host or cells: HEK-Blue hTLR cells
T1 sequence (Q9NR97 27-1041): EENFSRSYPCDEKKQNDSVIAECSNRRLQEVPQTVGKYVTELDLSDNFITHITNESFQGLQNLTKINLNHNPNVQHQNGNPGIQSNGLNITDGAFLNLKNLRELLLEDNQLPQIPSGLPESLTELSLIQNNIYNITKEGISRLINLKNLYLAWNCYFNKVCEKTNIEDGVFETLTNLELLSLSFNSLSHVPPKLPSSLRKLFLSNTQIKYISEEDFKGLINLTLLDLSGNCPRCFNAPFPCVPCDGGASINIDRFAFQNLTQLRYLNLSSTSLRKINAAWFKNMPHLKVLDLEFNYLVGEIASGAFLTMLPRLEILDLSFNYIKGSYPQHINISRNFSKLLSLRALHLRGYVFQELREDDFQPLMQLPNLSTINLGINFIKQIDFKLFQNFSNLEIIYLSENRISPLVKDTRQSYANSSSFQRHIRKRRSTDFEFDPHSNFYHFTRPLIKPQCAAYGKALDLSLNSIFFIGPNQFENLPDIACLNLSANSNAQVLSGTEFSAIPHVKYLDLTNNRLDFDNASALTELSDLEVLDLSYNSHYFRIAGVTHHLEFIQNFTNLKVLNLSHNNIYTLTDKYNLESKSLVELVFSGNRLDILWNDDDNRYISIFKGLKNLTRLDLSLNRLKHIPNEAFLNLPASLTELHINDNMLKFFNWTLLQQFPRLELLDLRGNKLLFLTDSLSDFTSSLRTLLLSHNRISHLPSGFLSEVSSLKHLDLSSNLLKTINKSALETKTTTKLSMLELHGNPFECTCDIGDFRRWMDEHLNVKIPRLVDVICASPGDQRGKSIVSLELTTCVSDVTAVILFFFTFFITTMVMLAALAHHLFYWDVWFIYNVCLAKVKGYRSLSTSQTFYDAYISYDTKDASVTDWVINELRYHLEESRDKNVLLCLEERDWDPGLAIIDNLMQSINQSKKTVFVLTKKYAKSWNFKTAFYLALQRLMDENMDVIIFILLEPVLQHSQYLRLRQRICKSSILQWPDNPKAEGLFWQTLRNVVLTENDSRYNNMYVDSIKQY
Briefly: agonistic activity on hTLR8, HEK-Blue hTLR cells, SEAP reporter (QUANTI-Blue). In kind it is cell-based. The settings on record: HEK-Blue hTLR cells, SEAP reporter, OD650, cultured 1 day; read-out: TLR 8 EC50. How it is done:
Experiments on the agonistic activity of TLR7 and TLR8 by the compounds in vitro
(§1) The compound was diluted with 1:3 series with DMSO for 9 concentration points, duplicated wells, and added to 96-well plate with Echo.
(§2) The HEK-Blue™ hTLR cells were suspended in the culture medium and then seeded into a 96-well plate containing the compound at a density of 50,000 cells/well. Cells were cultured at 5% CO2 and 37° C. for 1 day. The final concentration of DMSO in the cell culture medium was 0.5%.
20 uL cell culture supernatant was taken, according to the QUANTI-Blue instructions, the reporter gene SEAP in the supernatant was detected, and the OD650 signal value was read with a microplate reader to calculate the agonist activity of the compound on the hTLR7 and hTLR8.
(§3) The EC50 and CC50 values of the compound were calculated by GraphPad Prism software, and the fitting curve was plotted.

The nature of series [1]: cytotoxicity, cell viability by CellTiter-Glo. Particulars: human, HEK-Blue hTLR cells, cultured 1 day. The series is classed as cell-based, human. How it is done:
as §1, §2
According to the CellTiter-Glo instructions, the cell viability was measured, and the Luminescence signal value was read by the microplate reader, which was used to calculate the cytotoxicity of the compound.
as §3

pEC50: −log10 of the molar value.

For the compound `CCOCc1nc2c(N)nc3ccccc3c2n1C[C@@H](C)O[P@@](=O)(N[C@H](C)C(=O)OC(C)C)Oc1ccccc1` (single isomer, unassigned) [Example 13A], the pEC50 (usually the EC50 on a negative log10 scale, so that one unit is a factor of ten) on hTLR8 was 6.12. Besides, in series [1], the CC50 (as a rule, the concentration giving 50% cytotoxicity) at 1 day is above 30 µM. Turning to `CCOCc1nc2c(N)nc3ccccc3c2n1C[C@@H](C)O[P@](=O)(N[C@@H](C)C(C)C)Oc1ccc(Cl)cc1` [Example 23B, (R)-1-(4-amino-2-(ethoxymethyl)-1H-imidazo [4,5-c]quinolin-1-yl) propan-2-yl (4-chlorophenyl) (R)—((S)-3-methylbutan-2-yl) phosphoramide], the pEC50 at hTLR8 is 4.74. Regarding `CCOCc1nc2c(N)nc3ccccc3c2n1C[C@@H](C)O[P@@](=O)(N[C@@H](C)C(=O)OC(C)C)Oc1cccc(C)c1` (single isomer, unassigned) [Example 8A], the pEC50 at hTLR8 is 7.44. The same compound showed a CC50 at 1 day in series [1] above 30 µM. For the compound `CCOCc1nc2c(N)nc3ccccc3c2n1C[C@@H](C)O[P@](=O)(N[C@@H](C)C(=O)OC(C)C)Oc1ccc(Cl)cc1` (single isomer, unassigned) [Example 12B], the pEC50 at hTLR8 was 7.31. In series [1], this compound displayed a CC50 at 1 day above 30 µM. Turning to `CCOCc1nc2c(N)nc3ccccc3c2n1C[C@@H](C)OP(=O)(N[C@H](C(=O)OC(C)(C)C)C(C)C)Oc1ccc(Cl)cc1` (stereo partly shown) [Example 22], on hTLR8, the pEC50 was 5.74.

Take `CCOCc1nc2c(N)nc3ccccc3c2n1C[C@@H](C)O[P@@](=O)(N[C@@H](C)C(=O)OC(C)C)Oc1ccccc1C` (single isomer, unassigned) [Example 7A]: on hTLR8, the pEC50 is 6.67. The compound further registered a CC50 at 1 day in series [1] above 30 µM. In the case of `CCOCc1nc2c(N)nc3ccccc3c2n1C[C@@H](C)O[P@](=O)(N[C@@H](C)C(=O)OC(C)C)Oc1ccccc1C` (single isomer, unassigned) [Example 7B], at hTLR8, the pEC50 was 7.39. This compound also showed a CC50 at 1 day in series [1] above 30 µM. Consider `CCOCc1nc2c(N)nc3ccccc3c2n1C[C@@H](C)O[P@](=O)(N[C@@H](C)C(F)(F)F)Oc1ccc(Cl)cc1` [Example 24B, (R)-1-(4-amino-2-(ethoxymethyl)-1H-imidazo [4,5-c]quinolin-1-yl) propan-2-yl (4-chlorophenyl) (R)—((S)-1,1,1-trifluoropropan-2-yl) phosphoramide], for which, on hTLR8, the pEC50 is below 4.52.

Consider `CCOCc1nc2c(N)nc3ccccc3c2n1C[C@@H](C)O[P@](=O)(N[C@@H](C)C(=O)OC(C)(C)C)Oc1ccc(Cl)cc1` (single isomer, unassigned) [Example 19B], for which the pEC50 at hTLR8 is 5.60. The compound further yielded a CC50 at 1 day in series [1] above 30 µM. Take `CCOCc1nc2c(N)nc3ccccc3c2n1C[C@@H](C)O[P@](=O)(N[C@H](C)C(=O)OC(C)C)Oc1ccccc1` (single isomer, unassigned) [Example 13B]: the pEC50 at hTLR8 is 5.73. This compound gave a CC50 at 1 day in series [1] above 30 µM. With `CCOCc1nc2c(N)nc3ccccc3c2n1CC(C)(C)O` [Example R848, reference compound], in series [1], the CC50 at 1 day is above 10 µM. In the case of `CCOCc1nc2c(N)nc3ccccc3c2n1C[C@@H](C)O[P@](=O)(N[C@@H](C)C(=O)OC(C)(C)C)Oc1ccc(OC)cc1` (single isomer, unassigned) [Example 18B], the pEC50 at hTLR8 was 5.61. In addition, in series [1], the CC50 at 1 day was above 30 µM.

For the compound `CCOCc1nc2c(N)nc3ccccc3c2n1C[C@@H](C)O[P@](=O)(N[C@@H](C)C(=O)OC(C)C)Oc1ccc(C)cc1` (single isomer, unassigned) [Example 9B], at hTLR8, the pEC50 is 7.15. The compound also yielded a CC50 at 1 day in series [1] above 30 µM. Consider `CCOCc1nc2c(N)nc3ccccc3c2n1C[C@@H](C)O[P@](=O)(N[C@@H](C)C(=O)OC)Oc1ccccc1` (single isomer, unassigned) [Example 15B], for which the pEC50 on hTLR8 is 7.32. Also, the CC50 at 1 day in series [1] was above 30 µM. As for `CCOCc1nc2c(N)nc3ccccc3c2n1C[C@@H](C)O[P@](=O)(N[C@@H](C)C(=O)OC(C)C)Oc1cccc(Cl)c1` (single isomer, unassigned) [Example 11B], on hTLR8, the pEC50 was 7.15. In series [1], this compound displayed a CC50 at 1 day above 30 µM. As for `CCOCc1nc2c(N)nc3ccccc3c2n1C[C@@H](C)O[P@](=O)(N[C@@H](C)C(=O)OC(C)C)Oc1cccc(C)c1` (single isomer, unassigned) [Example 8B], at hTLR8, the pEC50 was 7.19. In series [1], this compound returned a CC50 at 1 day above 30 µM.

Turning to `CCOCc1nc2c(N)nc3ccccc3c2n1C[C@@H](C)O[P@@](=O)(N[C@@H](C)C(C)C)Oc1ccc(Cl)cc1` [Example 23A, (R)-1-(4-amino-2-(ethoxymethyl)-1H-imidazo [4,5-c]quinolin-1-yl) propan-2-yl (4-chlorophenyl) (S)—((S)-3-methylbutan-2-yl) phosphoramide], at hTLR8, the pEC50 was below 4.52. Take `CCOCc1nc2c(N)nc3ccccc3c2n1C[C@@H](C)O[P@@](=O)(N[C@@H](C)C(=O)OC(C)C)Oc1ccccc1Cl` (single isomer, unassigned) [Example 10A]: the pEC50 at hTLR8 was 7.47. Besides, the CC50 at 1 day in series [1] was above 30 µM. On to `CCOCc1nc2c(N)nc3ccccc3c2n1C[C@@H](C)O[P@](=O)(N[C@@H](C)C(=O)OCc1ccccc1)Oc1ccccc1` (single isomer, unassigned) [Example 16B], for which, on hTLR8, the pEC50 was 7.94. Moreover, the CC50 at 1 day in series [1] is above 30 µM. On to `CCOCc1nc2c(N)nc3ccccc3c2n1C[C@@H](C)O[P@](=O)(N[C@@H](C)C(=O)OC(C)C)Oc1ccccc1Cl` (single isomer, unassigned) [Example 10B], for which, on hTLR8, the pEC50 was 7.89. Besides, the CC50 at 1 day in series [1] is above 30 µM. As for `CCOCc1nc2c(N)nc3ccccc3c2n1C[C@@H](C)O[P@](=O)(N[C@@H](C)COC)Oc1ccc(Cl)cc1` [Example 25B, (R)-1-(4-amino-2-(ethoxymethyl)-1H-imidazo [4,5-c]quinolin-1-yl) propan-2-yl (4-chlorophenyl) (R)—((S)-1-methoxypropan-2-yl) Phosphoramide], the pEC50 at hTLR8 is below 4.52.

Turning to `CCOCc1nc2c(N)nc3ccccc3c2n1C[C@@H](C)O[P@](=O)(N[C@@H](C)C(=O)OC(C)(C)C)Oc1ccccc1` (single isomer, unassigned) [Example 14B], the pEC50 on hTLR8 is 5.89. Further, the 50% cytotoxic concentration (CC50) at 1 day in series [1] was above 30 µM. For `CCOCc1nc2c(N)nc3ccccc3c2n1C[C@@H](C)O[P@](=O)(N[C@@H](C)C(=O)OC(C)(C)C)Oc1ccc(C)cc1` (single isomer, unassigned) [Example 17B], the pEC50 on hTLR8 was 5.53. In series [1], this compound yielded a CC50 at 1 day above 30 µM. For `CCOCc1nc2c(N)nc3ccccc3c2n1C[C@@H](C)OP(=O)(N[C@@H](C)C(F)(F)F)Oc1ccccc1` (single isomer, unassigned) [Example 24A], the pEC50 on hTLR8 is below 4.52. For `CCOCc1nc2c(N)nc3ccccc3c2n1C[C@@H](C)O[P@@](=O)(N[C@@H](C)COC)Oc1ccc(Cl)cc1` [Example 25A, (R)-1-(4-amino-2-(ethoxymethyl)-1H-imidazo [4,5-c]quinolin-1-yl) propan-2-yl (4-chlorophenyl) (S)—((S)-1-methoxypropan-2-yl) phosphoramide], on hTLR8, the pEC50 was below 4.52.

As for `CCOCc1nc2c(N)nc3ccccc3c2n1C[C@@H](C)O[P@@](=O)(N[C@@H](C)C(=O)OC)Oc1ccccc1` (single isomer, unassigned) [Example 15A], the pEC50 on hTLR8 is 7.17. Further, the CC50 at 1 day in series [1] is above 30 µM.

Turning to `CCOCc1nc2c(N)nc3ccccc3c2n1C[C@@H](C)O[P@](=O)(N[C@@H](C)C(=O)OC(C)C)Oc1ccc2ccccc2c1` (single isomer, unassigned) [Example 6B], the pEC50 at hTLR8 is 7.64. In addition, in series [1], the CC50 at 1 day is above 30 µM.
